Experiment [1] has as its target full-length human HPK1 (MAP4K1) (Homo sapiens (Human), UniProt Q92918). The experiment in a line: HPK1 Kinase Assay (Biochemical Assay), ADP-Glo. To be noted: GST-HPK1 3.2 nM, 10 μM ATP, MBP substrate, read-out: HPK1 enzymatic IC50. The essentials:
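ADP-Glo luminescence after a 120-min kinase reaction gave percent inhibition and IC50. The enzyme was Sf21-expressed N-terminal GST full-length human HPK1 at 3.2 nM in HEPES pH 7.5 buffer with MgCl2, DTT, Brij-35 and BSA.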
(In general: ADP-Glo turns the ADP formed in a reaction into a luminescent signal.)

In experiment [2] the target is HPK1 (SLP76 phosphorylation at Ser376 in Jurkat and EL-4 cells) (Homo sapiens, UniProt Q92918). It counts as cell-based. To be noted: αCD3/αCD28 Dynabeads stimulated cells, pSLP76 (Ser376) detection; read-out: HPK1 pSLP76 IC50. The method in brief:
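Phospho-SLP76 (Ser376) in lysates measured by AlphaLISA for human Jurkat and by 19 h HTRF for mouse EL-4, giving % inhibition and IC50. Compounds applied 60 min before αCD3/αCD28 bead stimulation at 37 °C, lasting 15 min (Jurkat) or 30 min (EL-4).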

Each structure is given as a SMILES string. Where only a bound is given, the exact number is not on record here.

Chain of HPK1 (SLP76 phosphorylation at Ser376 in Jurkat and EL-4 cells) (Q92918 whole entry, looked up): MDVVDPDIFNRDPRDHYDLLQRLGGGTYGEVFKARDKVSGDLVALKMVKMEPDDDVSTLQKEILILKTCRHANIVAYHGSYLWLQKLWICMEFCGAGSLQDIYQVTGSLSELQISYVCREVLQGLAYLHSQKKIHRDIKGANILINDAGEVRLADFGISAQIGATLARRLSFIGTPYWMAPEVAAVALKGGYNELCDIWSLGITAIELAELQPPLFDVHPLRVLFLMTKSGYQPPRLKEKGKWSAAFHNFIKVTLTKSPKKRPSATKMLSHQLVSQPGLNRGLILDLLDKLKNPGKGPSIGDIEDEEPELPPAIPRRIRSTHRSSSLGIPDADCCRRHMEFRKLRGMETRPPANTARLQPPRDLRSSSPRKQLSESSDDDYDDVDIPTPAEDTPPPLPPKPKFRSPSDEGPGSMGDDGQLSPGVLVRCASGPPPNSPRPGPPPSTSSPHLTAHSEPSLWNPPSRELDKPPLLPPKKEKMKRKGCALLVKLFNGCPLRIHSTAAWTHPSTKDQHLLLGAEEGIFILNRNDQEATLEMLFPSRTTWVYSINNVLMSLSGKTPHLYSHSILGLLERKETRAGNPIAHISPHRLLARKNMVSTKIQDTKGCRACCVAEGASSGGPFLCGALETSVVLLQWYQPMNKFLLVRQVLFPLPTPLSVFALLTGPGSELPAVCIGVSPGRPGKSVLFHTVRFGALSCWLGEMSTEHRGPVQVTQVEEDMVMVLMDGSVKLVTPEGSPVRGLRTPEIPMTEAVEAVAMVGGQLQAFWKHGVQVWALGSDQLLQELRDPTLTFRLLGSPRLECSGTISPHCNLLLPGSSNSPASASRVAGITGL
Chain of full-length human HPK1 (MAP4K1) (Q92918 whole entry): as the sequence (Q92918 whole entry, looked up) above

As a reminder, the IC50 is the concentration at which inhibition is half-maximal. As for `Cc1c(N2CCc3cnc(Nc4ccc(CS(=O)(=O)CCN(C)C)cc4)nc3C2)cnc2c1NCCO2` [Example 154, N-(4-{[2-(dimethylamino)ethanesulfonyl]methyl}phenyl)-7-{8-methyl-1H,2H,3H-pyrido[2,3-b][1,4]oxazin-7-yl}-5H,6H,7H,8H-pyrido[3,4-d]pyrimidin-2-amine], the IC50 in experiment [1] is less than 100 nM; in experiment [2], less than 500 nM.
Turning to `Cc1c(N2CCc3cnc(Nc4cccc(Cn5ccnc5)c4)nc3C2)cnc2c1NCCO2` [Example 191, N-{3-[(1H-imidazol-1-yl)methyl]phenyl}-7-{8-methyl-1H,2H,3H-pyrido[2,3-b][1,4]oxazin-7-yl}-5H,6H,7H,8H-pyrido[3,4-d]pyrimidin-2-amine], the IC50 was less than 100 nM in experiment [1] and less than 500 nM in experiment [2].
As to `Cc1cc(Nc2cc3c(cn2)CCN(c2cnc4c(c2C)NCCO4)C3)ccc1CS(C)(=O)=O` [Example 179, N-[4-(methanesulfonylmethyl)-3-methylphenyl]-6-{8-methyl-1H,2H,3H-pyrido[2,3-b][1,4]oxazin-7-yl}-5,6,7,8-tetrahydro-2,6-naphthyridin-3-amine], the IC50 in experiment [1] was less than 100 nM; in experiment [2] it was less than 500 nM.
In the same order, the values of `Cc1c(N2CCc3cnc(Nc4ccc(NCCN(C)C)c(F)c4)nc3C2)cnc2c1NCCO2` [Example 1, N1-[2-(dimethylamino)ethyl]-2-fluoro-N4-(7-{8-methyl-1H,2H,3H-pyrido[2,3-b][1,4]oxazin-7-yl}-5H,6H,7H,8H-pyrido[3,4-d]pyrimidin-2-yl)benzene-1,4-diamine] are less than 100 nM and less than 500 nM.
Regarding `Cc1cc(Nc2cc3c(cn2)CCN(c2cnc4c(c2C)NCCO4)C3)ccc1NCCN1CCOCC1` [Example 15, 2-methyl-N4-(6-{8-methyl-1H,2H,3H-pyrido[2,3-b][1,4]oxazin-7-yl}-5,6,7,8-tetrahydro-2,6-naphthyridin-3-yl)-N1-[2-(morpholin-4-yl)ethyl]benzene-1,4-diamine], the IC50 in experiment [1] was less than 100 nM; in experiment [2] it was 500 to 1000 nM.
For the compound `Cc1c(N2CCc3cnc(Nc4ccc(N5CCC(O)CC5)cc4)nc3C2)cnc2c1NCCO2` [Example 111, 1-(4-((7-(8-methyl-2,3-dihydro-1H-pyrido[2,3-b][1,4]oxazin-7-yl)-5,6,7,8-tetrahydropyrido[3,4-d]pyrimidin-2-yl)amino)phenyl)piperidin-4-ol], the IC50 in experiment [1] was less than 100 nM; in experiment [2], 500 to 1000 nM.
In the same order, the values of `Cc1c(N2CCc3cnc(Nc4ccc([C@H](C)S(C)(=O)=O)cc4)nc3C2)cnc2c1NCCO2` (single isomer, unassigned) [Example 157] are less than 100 nM and less than 500 nM.
`Cc1c(N2CCc3cnc(Nc4ccc5c(c4)COC5)nc3C2)cnc2c1NCCO2` [Example 92, N-(1,3-dihydroisobenzofuran-5-yl)-7-(8-methyl-2,3-dihydro-1H-pyrido[2,3-b][1,4]oxazin-7-yl)-5,6,7,8-tetrahydropyrido[3,4-d]pyrimidin-2-amine]: the IC50 is less than 100 nM in experiment [1] and 500 to 1000 nM in experiment [2].
For `COCC1CN(C(=O)Cc2ccc(Nc3ncc4c(n3)CN(c3cnc5c(c3C)NCCO5)CC4)cc2)C1` [Example 175, 1-[3-(methoxymethyl)azetidin-1-yl]-2-{4-[(7-{8-methyl-1H,2H,3H-pyrido[2,3-b][1,4]oxazin-7-yl}-5H,6H,7H,8H-pyrido[3,4-d]pyrimidin-2-yl)amino]phenyl}ethan-1-one], in that order: less than 100 nM and less than 500 nM.
On to `Cc1c(N2CCc3cnc(Nc4ccc(CS(=O)(=O)C5CC5)cn4)cc3C2)cnc2c1NCCO2` [Example 176, N-{5-[(cyclopropanesulfonyl)methyl]pyridin-2-yl}-6-{8-methyl-1H,2H,3H-pyrido[2,3-b][1,4]oxazin-7-yl}-5,6,7,8-tetrahydro-2,6-naphthyridin-3-amine], for which the IC50 is less than 100 nM in experiment [1] and less than 500 nM in experiment [2].

(Values after patent US20240025922A1, “TETRAHYDROPYRIDO[3,4-d]PYRIMIDINES AS HPK1 INHIBITORS” (Merck Patent GmbH, priority 2022, published 2024).)
